According to ChEMBL document CHEMBL5096235, “In Silico Exploration and Biological Evaluation of Bispecific Peptides Derived from Anti-HER2 Antibodies and Peptide-Camptothecin Conjugates for HER2-Positive Breast Cancer” (J Med Chem, 2022):
Calls of active or inactive are those of the source. The calls are words filed in the database; no cut-off is given here. Residues, ends and D or L forms follow the SMILES beside them. *: point of attachment. S(CH2)2OCO2(CPT-20-yl) = CC[C@@]1(OC(=O)OCCS*)C(=O)OCc2c1cc1n(c2=O)Cc2cc3ccccc3nc2-1

Assays:
[1] = target: T1, Receptor tyrosine-protein kinase erbB-2 (Homo sapiens, UniProt P04626); assay: Binding affinity to recombinant HER2 (unknown origin) assessed as dissociation constant by SPR analysis
[2] = target: T1, Receptor tyrosine-protein kinase erbB-2; assay: Binding affinity to HER2 in HER-positive human SK-BR-3 cells assessed as increase in fluorescence intensity at 25 uM by Hoechst 33342 staining based confocal microscopic analysis; format: cell-based
SK-BR-3 [3] = assay: Cytotoxicity against HER-positive human SK-BR-3 cells assessed as inhibition of cell growth incubated for 48 hrs by MTT assay; format: functional, cell-based; conditions: SK-BR-3, 48 h
NCI-N87 = assay: Cytotoxicity against HER-positive human NCI-N87 cells assessed as inhibition of cell growth incubated for 48 hrs by MTT assay; format: functional, cell-based; conditions: NCI-N87, 48 h
SK-OV-3 = assay: Cytotoxicity against HER-positive human SK-OV-3 cells assessed as inhibition of cell growth incubated for 48 hrs by MTT assay; format: functional, cell-based; conditions: SK-OV-3, 48 h
MDA-MB-231 = assay: Cytotoxicity against HER-negative human MDA-MB-231 cells assessed as inhibition of cell growth incubated for 48 hrs by MTT assay; format: functional, cell-based; conditions: MDA-MB-231, 48 h
[4] = Cytotoxicity against human MCF-10A cells assessed as inhibition of cell growth incubated for 48 hrs by MTT assay; format: toxicity, cell-based
SK-BR-3 [5] = assay: Induction of apoptosis in human SK-BR-3 cells assessed as late apoptotic cells at 1 uM incubated for 24 hrs by Annexin V-FITC/PI staining based flow cytometry analysis (Rvb= 5.02%); format: functional
SK-BR-3 [6] = assay: Induction of apoptosis in human SK-BR-3 cells assessed as dead cells at 1 uM incubated for 24 hrs by Annexin V-FITC/PI staining based flow cytometry analysis (Rvb= 1.21%); format: functional
SK-BR-3 [7] = assay: Induction of apoptosis in human SK-BR-3 cells assessed as live cells at 2 uM incubated for 24 hrs by Annexin V-FITC/PI staining based flow cytometry analysis (Rvb= 89.4%); format: functional
SK-BR-3 [8] = assay: Induction of apoptosis in human SK-BR-3 cells assessed as late apoptotic cells at 2 uM incubated for 24 hrs by Annexin V-FITC/PI staining based flow cytometry analysis (Rvb= 5.02%); format: functional
SK-BR-3 [9] = assay: Induction of cell cycle arrest in human SK-BR-3 cells assessed as accumulation of cells at S phase at 1 uM incubated for 24 hrs by flow cytometry analysis (reference value: 23%); format: functional
[10] = target: T2, DNA topoisomerase 1 (Homo sapiens) (UniProt P11387); assay: Inhibition of topoisomerase 1 (unknown origin) assessed as relaxation of supercoiled plasmid pBR322 DNA at 100 uM preincubated for 20 mins followed by pBR322 DNA addition and measured after 30 mins by agarose gel electrophoresis analysis; conditions: time 50.0 min
T2 sequence (whole entry): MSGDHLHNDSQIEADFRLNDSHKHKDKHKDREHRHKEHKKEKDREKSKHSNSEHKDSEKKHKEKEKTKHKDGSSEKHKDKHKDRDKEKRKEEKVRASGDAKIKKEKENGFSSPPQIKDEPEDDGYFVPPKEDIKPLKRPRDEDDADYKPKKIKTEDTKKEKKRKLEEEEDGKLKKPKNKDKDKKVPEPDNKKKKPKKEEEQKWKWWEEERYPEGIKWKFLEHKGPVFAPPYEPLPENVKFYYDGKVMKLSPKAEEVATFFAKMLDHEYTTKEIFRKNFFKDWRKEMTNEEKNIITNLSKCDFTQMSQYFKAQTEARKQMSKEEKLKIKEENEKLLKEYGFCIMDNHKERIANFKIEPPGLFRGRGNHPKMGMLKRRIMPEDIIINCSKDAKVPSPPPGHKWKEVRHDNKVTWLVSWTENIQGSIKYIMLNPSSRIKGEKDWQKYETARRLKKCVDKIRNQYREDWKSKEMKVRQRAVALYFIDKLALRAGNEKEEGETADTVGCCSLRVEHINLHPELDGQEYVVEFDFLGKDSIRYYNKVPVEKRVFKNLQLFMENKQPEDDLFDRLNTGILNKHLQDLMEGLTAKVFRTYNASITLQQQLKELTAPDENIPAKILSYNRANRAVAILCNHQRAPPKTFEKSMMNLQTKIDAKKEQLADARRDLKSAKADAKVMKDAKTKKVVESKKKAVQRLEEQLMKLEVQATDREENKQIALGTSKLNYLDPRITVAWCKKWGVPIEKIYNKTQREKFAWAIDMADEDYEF

[11] = Metabolic stability in Sprague-Dawley rat plasma assessed as drug degradation incubated for 120 mins by LC-MS/MS analysis; format: ADME, cell-free; conditions: 2 h
[12] = Metabolic stability in Sprague-Dawley rat plasma assessed as half life incubated for 120 mins by LC-MS/MS analysis; format: ADME, cell-free
[13] = Drug metabolism in human SK-BR-3 cells assessed as camptothecin release at 50 uM measured after 4 hrs by LC-MS/MS analysis; format: ADME, cell-based; conditions: sk-br-3, 4 h
[14] = Toxicity in nude mouse xenografted with human SK-BR-3 cells assessed as reduction in body weight at 8 umol/kg, iv administered every 3 days for 14 days; format: organism-based; conditions: in vivo, 336 h, dose 8 µmol/kg, time 14 day
[15] = […] in nude mouse xenografted with human SK-BR-3 cells assessed as effect on aspartate aminotransferase level at 8 micromol/kg, iv administered every 3 days for 14 days; format: organism-based; conditions: in vivo, 336 h, dose 8 µmol/kg, time 14 day
[16] = Renal toxicity in nude mouse xenografted with human SK-BR-3 cells assessed as effect on blood urea nitrogen level at 8 micromol/kg, iv administered every 3 days for 14 days; format: organism-based; conditions: in vivo, 336 h, dose 8 µmol/kg, time 14 day
[17] = Toxicity in nude mouse xenografted with human SK-BR-3 cells assessed as effect on alkaline phosphatase level at 8 micromol/kg, iv administered every 3 days for 14 days; format: organism-based; conditions: in vivo, 336 h, dose 8 µmol/kg, time 14 day
[18] = Toxicity in nude mouse xenografted with human SK-BR-3 cells assessed as effect on globulin level at 8 micromol/kg, iv administered every 3 days for 14 days; format: organism-based; conditions: in vivo, 336 h, dose 8 µmol/kg, time 14 day
[19] = Toxicity in nude mouse xenografted with human SK-BR-3 cells assessed as effect on creatinine level at 8 micromol/kg, iv administered every 3 days for 14 days; format: organism-based; conditions: in vivo, 336 h, dose 8 µmol/kg, time 14 day
[20] = Toxicity in nude mouse xenografted with human SK-BR-3 cells assessed as heart damage at 8 micromol/kg, iv administered every 3 days for 14 days by H and E staining based analysis; format: organism-based; conditions: in vivo, 336 h, dose 8 µmol/kg, time 14 day
[21] = Toxicity in nude mouse xenografted with human SK-BR-3 cells assessed as liver damage at 8 micromol/kg, iv administered every 3 days for 14 days by H and E staining based analysis; format: organism-based; conditions: in vivo, 336 h, dose 8 µmol/kg, time 14 day
[22] = Toxicity in nude mouse xenografted with human SK-BR-3 cells assessed as lung damage at 8 micromol/kg, iv administered every 3 days for 14 days by H and E staining based analysis; format: organism-based; conditions: in vivo, 336 h, dose 8 µmol/kg, time 14 day
[23] = Toxicity in nude mouse xenografted with human SK-BR-3 cells assessed as kidney damage at 8 micromol/kg, iv administered every 3 days for 14 days by H and E staining based analysis; format: organism-based; conditions: in vivo, 336 h, dose 8 µmol/kg, time 14 day
[24] = Toxicity in nude mouse xenografted with human SK-BR-3 cells assessed as cellular necrosis at 8 micromol/kg, iv administered every 3 days for 14 days by H and E staining based analysis; format: organism-based; conditions: in vivo, 336 h, dose 8 µmol/kg, time 14 day
[25] = Toxicity in nude mouse xenografted with human SK-BR-3 cells assessed as inflammatory cell infiltration at 8 micromol/kg, iv administered every 3 days for 14 days by H and E staining based analysis; format: organism-based; conditions: in vivo, 336 h, dose 8 µmol/kg, time 14 day

T1 sequence (P04626 whole entry): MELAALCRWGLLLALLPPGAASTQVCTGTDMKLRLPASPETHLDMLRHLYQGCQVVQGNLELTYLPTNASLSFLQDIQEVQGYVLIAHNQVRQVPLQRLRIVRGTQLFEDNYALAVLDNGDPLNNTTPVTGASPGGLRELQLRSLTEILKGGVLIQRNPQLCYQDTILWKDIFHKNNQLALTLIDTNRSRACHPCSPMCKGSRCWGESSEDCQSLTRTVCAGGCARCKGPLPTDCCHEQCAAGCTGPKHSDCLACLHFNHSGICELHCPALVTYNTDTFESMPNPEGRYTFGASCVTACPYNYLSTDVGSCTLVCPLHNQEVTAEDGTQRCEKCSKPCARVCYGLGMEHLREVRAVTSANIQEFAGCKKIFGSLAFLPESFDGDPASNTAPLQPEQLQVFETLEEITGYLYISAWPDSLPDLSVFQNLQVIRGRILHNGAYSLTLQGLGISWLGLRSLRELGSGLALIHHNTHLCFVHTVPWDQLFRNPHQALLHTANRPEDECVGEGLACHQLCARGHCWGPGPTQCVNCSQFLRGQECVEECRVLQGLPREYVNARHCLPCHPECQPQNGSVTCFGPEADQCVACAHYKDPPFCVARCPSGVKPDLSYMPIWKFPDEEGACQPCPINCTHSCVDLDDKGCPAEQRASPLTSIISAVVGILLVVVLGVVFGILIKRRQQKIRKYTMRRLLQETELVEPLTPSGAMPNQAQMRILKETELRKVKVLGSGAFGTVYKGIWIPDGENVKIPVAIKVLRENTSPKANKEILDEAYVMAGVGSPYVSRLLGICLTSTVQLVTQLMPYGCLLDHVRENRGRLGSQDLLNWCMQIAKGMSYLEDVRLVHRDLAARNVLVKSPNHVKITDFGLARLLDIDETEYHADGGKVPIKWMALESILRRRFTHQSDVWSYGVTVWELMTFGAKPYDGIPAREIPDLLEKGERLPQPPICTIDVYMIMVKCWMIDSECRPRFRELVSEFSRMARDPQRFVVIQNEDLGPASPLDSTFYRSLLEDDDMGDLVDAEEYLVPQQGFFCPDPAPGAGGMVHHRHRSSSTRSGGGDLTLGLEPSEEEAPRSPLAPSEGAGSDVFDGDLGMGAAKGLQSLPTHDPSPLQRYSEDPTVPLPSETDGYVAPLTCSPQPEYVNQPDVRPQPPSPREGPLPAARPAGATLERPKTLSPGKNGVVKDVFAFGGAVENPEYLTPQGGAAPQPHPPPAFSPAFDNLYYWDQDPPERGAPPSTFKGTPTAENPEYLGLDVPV

CC[C@H](C)[C@H](NC(=O)[C@@H](N)CCCNC(=N)N)C(=O)N[C@@H](CCCCN)C(=O)N1CCC[C@H]1C(=O)N[C@@H](CCCNC(=N)N)C(=O)N[C@@H](CCCCN)C(=O)NCC(=O)N[C@@H](Cc1ccc(O)cc1)C(=O)N[C@H](C(=O)N[C@@H](CCCNC(=N)N)C(=O)NCC(=O)N[C@@H](CSSCCOC(=O)O[C@]1(CC)C(=O)OCc2c1cc1n(c2=O)Cc2cc3ccccc3nc2-1)C(=O)NCC(=O)N[C@@H](CSSCCOC(=O)O[C@]1(CC)C(=O)OCC2=C1C=C1c3nc4ccccc4cc3NC1C2=O)C(=O)NC(=O)C[C@H](NC(=O)CN)C(=O)N1CCC[C@H]1C(=O)N[C@@H](CC(N)=O)C(=O)N[C@@H](Cc1c[nH]c2ccccc12)C(=O)NCC(=O)N[C@@H](CCCNC(=N)N)C(=O)N[C@@H](CO)C(=O)N[C@@H](Cc1c[nH]c2ccccc12)C(=O)N[C@@H](Cc1ccc(O)cc1)C(=O)N[C@@H](CC(N)=O)C(=O)N[C@@H](CCC(N)=O)C(=O)N[C@@H](CCCNC(=N)N)C(=O)N[C@@H](Cc1ccccc1)C(=O)N[C@@H](CCCCN)C(N)=O)[C@@H](C)O (stereo partly specified)
Kd [1]: 437 nM | Activity [2]: Active | IC50 (SK-BR-3 [3]): 120 nM | IC50 (NCI-N87): 1780 nM | IC50 (SK-OV-3): 1270 nM | IC50 (MDA-MB-231): 7720 nM | IC50 at 48 h [4]: 17100 nM | Activity (SK-BR-3 [5]): 8.5% | Activity (SK-BR-3 [6]): 0.49% | Activity (SK-BR-3 [7]): 44.7% | Activity (SK-BR-3 [8]): 14% | Activity (SK-BR-3 [9]): 43.45% | inhibition [10]: Active | Stability [11]: Unstable | half-life [12]: 15 min | Drug metabolism [13]: Metabolite_Detected | Activity [14]: Non-Toxic | Activity [15]: Non-Toxic | Activity [16]: Toxic | Activity [17]: Non-Toxic | Activity [18]: Non-Toxic | Activity [19]: Non-Toxic | Activity [20]: Non-Toxic | Activity [21]: Non-Toxic | Activity [22]: Non-Toxic | Activity [23]: Non-Toxic | Activity [24]: Non-Toxic | Activity [25]: Non-Toxic

CC[C@H](C)[C@H](NC(=O)[C@@H](N)CCCNC(=N)N)C(=O)N[C@@H](CCCCN)C(=O)N1CCC[C@H]1C(=O)N[C@@H](CCCNC(=N)N)C(=O)N[C@@H](CCCCN)C(=O)NCC(=O)N[C@@H](Cc1ccc(O)cc1)C(=O)N[C@H](C(=O)N[C@@H](CCCNC(=N)N)C(=O)NCC(=O)N[C@@H](CSSCCOC(=O)O[C@]1(CC)C(=O)OCc2c1cc1n(c2=O)Cc2cc3ccccc3nc2-1)C(=O)NCC(=O)N[C@@H](CC(N)=O)C(=O)N1CCC[C@H]1C(=O)N[C@@H](CC(N)=O)C(=O)N[C@@H](Cc1c[nH]c2ccccc12)C(=O)NCC(=O)N[C@@H](CCCNC(=N)N)C(=O)N[C@@H](CO)C(=O)N[C@@H](Cc1c[nH]c2ccccc12)C(=O)N[C@@H](Cc1ccc(O)cc1)C(=O)N[C@@H](CC(N)=O)C(=O)N[C@@H](CCC(N)=O)C(=O)N[C@@H](CCCNC(=N)N)C(=O)N[C@@H](Cc1ccccc1)C(=O)N[C@@H](CCCCN)C(N)=O)[C@@H](C)O (H-RIKPRKGYTRGC(S(CH2)2OCO2(CPT-20-yl))GNPNWGRSWYNQRFK-NH2)
Kd [1]: 330 nM | Activity [2]: Active | IC50 (SK-BR-3 [3]): 1470 nM | IC50 (NCI-N87): 3290 nM | IC50 (SK-OV-3): 4290 nM | IC50 (MDA-MB-231): 7600 nM | IC50 at 48 h [4]: 23900 nM | Activity (SK-BR-3 [5]): 7.25% | Activity (SK-BR-3 [6]): 0.26% | Activity (SK-BR-3 [7]): 49.1% | Activity (SK-BR-3 [8]): 10.8% | Activity (SK-BR-3 [9]): 39.2% | inhibition [10]: Active | Stability [11]: Unstable | half-life [12]: 15 min | Drug metabolism [13]: Metabolite_Detected | Activity [14]: Non-Toxic | Activity [15]: Non-Toxic | Activity [16]: Non-Toxic | Activity [17]: Non-Toxic | Activity [18]: Non-Toxic | Activity [19]: Non-Toxic | Activity [20]: Non-Toxic | Activity [21]: Non-Toxic | Activity [22]: Non-Toxic | Activity [23]: Non-Toxic | Activity [24]: Non-Toxic | Activity [25]: Non-Toxic
